Test results reported in the NIST ThermoML archive (doi:10.1021/je700152c).
± gives the expanded uncertainty stated by the source.

Columns and labels:
[1] = molar heat capacity at constant pressure; xn = mol fraction of the nth substance listed; conditions: 101 kPa, Liquid, x1 = 0.37

CCCCn1cc[n+](C)c1.Cc1ccc(S(=O)(=O)[O-])cc1 [1-butyl-3-methylimidazolium tosylate]
Conditions	Triple point temperature [K]
Crystal 1, Adiabatic calorimetry	343.8 ± 0.67
Crystal 2, Adiabatic calorimetry	152 ± 1
Metastable crystal	342.48 ± 0.2

CCCCn1cc[n+](C)c1.Cc1ccc(S(=O)(=O)[O-])cc1 [1-butyl-3-methylimidazolium tosylate] + O
[1]
Conditions	molar heat capacity at constant pressure [J/K/mol]
78.74 K	66.26 ± 0.88
81.34 K	67.77 ± 0.88
83.37 K	68.91 ± 0.88
85.4 K	70.17 ± 0.88
87.43 K	71.43 ± 0.88
89.46 K	72.69 ± 1
91.5 K	73.83 ± 1
93.53 K	75.09 ± 1
95.58 K	76.35 ± 1
97.63 K	77.49 ± 1
99.68 K	78.62 ± 1.1
101.73 K	79.76 ± 1.1
103.78 K	81.02 ± 1.1
105.84 K	82.16 ± 1.1
107.9 K	83.29 ± 1.1
109.96 K	84.43 ± 1.1
112.02 K	85.57 ± 1.1
114.09 K	86.7 ± 1.1
116.17 K	87.84 ± 1.1
118.24 K	88.97 ± 1.1
120.32 K	90.23 ± 1.1
122.39 K	91.37 ± 1.1
124.47 K	92.51 ± 1.1
126.55 K	93.64 ± 1.3
128.64 K	94.78 ± 1.3
130.73 K	96.04 ± 1.3
132.81 K	97.3 ± 1.3
134.9 K	98.31 ± 1.3
136.98 K	99.57 ± 1.3
139.08 K	100.71 ± 1.3
141.17 K	101.85 ± 1.3
143.27 K	103.11 ± 1.3
145.36 K	104.24 ± 1.3
147.46 K	105.38 ± 1.3
149.56 K	106.64 ± 1.3
151.66 K	107.78 ± 1.3
153.77 K	108.91 ± 1.3
155.87 K	110.17 ± 1.4
157.98 K	111.44 ± 1.4
160.09 K	112.57 ± 1.4
162.2 K	113.71 ± 1.4
164.31 K	114.97 ± 1.4
166.42 K	116.23 ± 1.4
168.54 K	117.37 ± 1.4
170.66 K	118.63 ± 1.4
172.78 K	119.89 ± 1.4
174.9 K	121.03 ± 1.4
177.02 K	122.29 ± 1.4
179.14 K	123.55 ± 1.4
181.27 K	124.94 ± 1.5
183.39 K	126.58 ± 1.5
185.51 K	128.6 ± 1.5
187.64 K	131.63 ± 1.5
189.76 K	138.07 ± 1.5
191.84 K	148.79 ± 1.6
193.9 K	159.02 ± 1.8
195.93 K	176.18 ± 1.9
198 K	179.59 ± 1.9
200.12 K	180.34 ± 1.9
202.26 K	181.1 ± 1.9
204.39 K	181.73 ± 1.9
206.52 K	182.24 ± 1.9
208.65 K	182.87 ± 1.9
210.79 K	183.5 ± 1.9
212.93 K	184.13 ± 1.9
215.07 K	184.63 ± 1.9
217.23 K	185.39 ± 1.9
219.38 K	185.9 ± 1.9
221.54 K	186.65 ± 1.9
223.7 K	187.28 ± 1.9
225.87 K	188.04 ± 1.9
